biological target: Beta-3 Adrenergic Receptor (Homo sapiens (Human), UniProt P13945); test: Homogeneous Time-Resolved Fluorescence (HTRF) cAMP antagonist assay, IC50 determination; type: cell-based; conditions: CHO-K1 cells stably expressing recombinant receptor, isoproterenol at EC90
Summary of the method: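 CHO-K1 cells stably expressing the recombinant receptor were preincubated with compound (10-point, 5-fold dilutions; top final typically 10 or 100 μM) in PBS with 1 mM IBMX, then stimulated with isoproterenol at its EC90 for 1 h at room temperature. cAMP was read by HTRF against an on-plate standard curve.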

Beta-3 Adrenergic Receptor, sequence (P13945 whole entry, species assumed): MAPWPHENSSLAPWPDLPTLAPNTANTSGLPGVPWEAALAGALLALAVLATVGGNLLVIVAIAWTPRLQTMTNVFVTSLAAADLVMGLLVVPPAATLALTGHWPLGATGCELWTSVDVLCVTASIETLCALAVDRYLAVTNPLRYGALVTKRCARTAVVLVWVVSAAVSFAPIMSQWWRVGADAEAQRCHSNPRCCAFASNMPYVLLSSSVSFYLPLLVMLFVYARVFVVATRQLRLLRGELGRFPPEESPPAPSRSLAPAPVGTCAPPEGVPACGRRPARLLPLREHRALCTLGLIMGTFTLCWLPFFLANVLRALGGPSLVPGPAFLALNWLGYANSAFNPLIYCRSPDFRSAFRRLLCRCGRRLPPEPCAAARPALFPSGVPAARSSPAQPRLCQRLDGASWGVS

IC50 | Structure (SMILES)
25.4 nM | CNS(=O)(=O)c1cccc(OC[C@@H](O)CNC2COC3(CCN(S(=O)(=O)c4c(F)cccc4F)CC3)C2)c1 (stereo partly drawn) [Compound 156, 3-((2S)-3-(8-(2,6-difluorophenylsulfonyl)-1-oxa-8-azaspiro[4.5]decan-3-ylamino)-2-hydroxypropoxy)-N-methylbenzenesulfonamide]
27.8 nM | CNS(=O)(=O)c1cccc(OC[C@@H](O)CNC2COC3(CCN(S(=O)(=O)c4cc(OC)ccc4F)CC3)C2)c1 (stereo partly drawn) [Compound 241, 3-((2S)-3-(8-(2-fluoro-5-methoxyphenylsulfonyl)-1-oxa-8-azaspiro[4.5]decan-3-ylamino)-2-hydroxypropoxy)-N-methylbenzenesulfonamide]
10 nM | CNS(=O)(=O)c1cccc(OC[C@@H](O)CNC2COC3(CCN(S(=O)(=O)c4ccc(C)c(C)c4)CC3)C2)c1 (stereo partly drawn) [Compound 19, 3-((2S)-3-(8-(3,4-dimethylphenylsulfonyl)-1-oxa-8-azaspiro[4.5]decan-3-ylamino)-2-hydroxypropoxy)-N-methylbenzenesulfonamide]
22.9 nM | CNS(=O)(=O)c1cccc(OC[C@@H](O)CN[C@H]2COC3(CCN(S(=O)(=O)c4ccc5[nH]c(C)nc5c4)CC3)C2)c1 [Compound 501, 3-((S)-2-hydroxy-3-((R)-8-(2-methyl-1H-benzo[d]imidazol-5-ylsulfonyl)-1-oxa-8-azaspiro[4.5]decan-3-ylamino)propoxy)-N-methylbenzenesulfonamide]
5.4 nM | CNS(=O)(=O)c1cccc(OC[C@@H](O)CNC2COC3(CCN(S(=O)(=O)c4ccc5ccccc5c4)CC3)C2)c1 (stereo partly drawn) [Compound 1, 3-((2S)-2-hydroxy-3-(8-(naphthalen-2-ylsulfonyl)-1-oxa-8-azaspiro[4.5]decan-3-ylamino)propoxy)-N-methylbenzenesulfonamide]
12.4 nM | CNS(=O)(=O)c1cccc(OC[C@@H](O)CNC2COC3(CCN(S(=O)(=O)c4cccc(Cl)c4)CC3)C2)c1 (stereo partly drawn) [Compound 15, 3-((2S)-3-(8-(3-chlorophenylsulfonyl)-1-oxa-8-azaspiro[4.5]decan-3-ylamino)-2-hydroxypropoxy)-N-methylbenzenesulfonamide]
166 nM | CCn1cc(S(=O)(=O)N2CCC3(CC2)C[C@@H](NC[C@H](O)COc2cccc(S(=O)(=O)NC)c2)CO3)c(=O)c2cc(F)ccc21 [Compound 536, 3-((S)-3-((R)-8-(1-ethyl-6-fluoro-4-oxo-1,4-dihydroquinolin-3-ylsulfonyl)-1-oxa-8-azaspiro[4.5]decan-3-ylamino)-2-hydroxypropoxy)-N-methylbenzenesulfonamide]
11.9 nM | CNS(=O)(=O)c1cccc(OC[C@@H](O)CNC2COC3(CCN(S(=O)(=O)c4ccc5nsnc5c4)CC3)C2)c1 (stereo partly drawn) [Compound 177, 3-((2S)-3-(8-(benzo[c][1,2,5]thiadiazol-5-ylsulfonyl)-1-oxa-8-azaspiro[4.5]decan-3-ylamino)-2-hydroxypropoxy)-N-methylbenzenesulfonamide]
16.7 nM | CNS(=O)(=O)c1cccc(OC[C@@H](O)CNC2COC3(CCN(S(=O)(=O)c4ccc(N(C)C)nc4)CC3)C2)c1 (stereo partly drawn) [Compound 422, 3-((2S)-3-(8-(6-(dimethylamino)pyridin-3-ylsulfonyl)-1-oxa-8-azaspiro[4.5]decan-3-ylamino)-2-hydroxypropoxy)-N-methylbenzenesulfonamide]
23.1 nM | CNS(=O)(=O)c1cccc(OC[C@@H](O)CNC2COC3(CCN(S(=O)(=O)c4cc(Br)ccc4Cl)CC3)C2)c1 (stereo partly drawn) [Compound 259, 3-((2S)-3-(8-(5-bromo-2-chlorophenylsulfonyl)-1-oxa-8-azaspiro[4.5]decan-3-ylamino)-2-hydroxypropoxy)-N-methylbenzenesulfonamide]
13.4 nM | CNS(=O)(=O)c1cccc(OC[C@@H](O)CNC2COC3(CCN(S(=O)(=O)c4cccc(C)c4)CC3)C2)c1 (stereo partly drawn) [Compound 21, 3-((2S)-2-hydroxy-3-(8-(m-tolylsulfonyl)-1-oxa-8-azaspiro[4.5]decan-3-ylamino)propoxy)-N-methylbenzenesulfonamide]

The next lines start with the compound.

Structure (SMILES) | IC50
CNS(=O)(=O)c1cccc(OC[C@@H](O)CN[C@H]2COC3(CCN(S(=O)(=O)c4ccc5c(c4)NC(=O)CO5)CC3)C2)c1 [Compound 279, 3-((S)-2-hydroxy-3-((R)-8-(3-oxo-3,4-dihydro-2H-benzo[b][1,4]oxazin-6-ylsulfonyl)-1-oxa-8-azaspiro[4.5]decan-3-ylamino)propoxy)-N-methylbenzenesulfonamide] | 31.6 nM
CNS(=O)(=O)c1cccc(OC[C@@H](O)CN[C@H]2COC3(CCN(c4ccncn4)CC3)C2)c1 [Compound 589, 3-((S)-2-hydroxy-3-((R)-8-(pyrimidin-4-yl)-1-oxa-8-azaspiro[4.5]decan-3-ylamino)propoxy)-N-methylbenzenesulfonamide] | 1450 nM
CNS(=O)(=O)c1cccc(OC[C@@H](O)CN[C@H]2COC3(CCN(S(=O)(=O)c4cnc5c(c4)N(C)CCO5)CC3)C2)c1 [Compound 414, 3-((S)-2-hydroxy-3-((R)-8-(1-methyl-2,3-dihydro-1H-pyrido[2,3-b][1,4]oxazin-7-ylsulfonyl)-1-oxa-8-azaspiro[4.5]decan-3-ylamino)propoxy)-N-methylbenzenesulfonamide] | 16.8 nM
CCN1CCOc2ccc(S(=O)(=O)N3CCC4(CC3)C[C@H](NC[C@H](O)COc3cccc(S(=O)(=O)NC)c3)CO4)cc21 [Compound 350, 3-((S)-3-((S)-8-(4-ethyl-3,4-dihydro-2H-benzo[b][1,4]oxazin-6-ylsulfonyl)-1-oxa-8-azaspiro[4.5]decan-3-ylamino)-2-hydroxypropoxy)-N-methylbenzenesulfonamide] | 21.8 nM
CNS(=O)(=O)c1cccc(OC[C@@H](O)CNC2COC3(CCN(S(=O)(=O)c4ccc(CO)cc4)CC3)C2)c1 (stereo partly drawn) [Compound 392, 3-((2S)-2-hydroxy-3-(8-(4-(hydroxymethyl)phenylsulfonyl)-1-oxa-8-azaspiro[4.5]decan-3-ylamino)propoxy)-N-methylbenzenesulfonamide] | 168 nM
Cc1cc(S(=O)(=O)N2CCC3(CC2)C[C@@H](NC[C@H](O)COc2cccc(S(N)(=O)=O)c2)CO3)ccc1Br [Compound 590, 3-((S)-3-((R)-8-(4-bromo-3-methylphenylsulfonyl)-1-oxa-8-azaspiro[4.5]decan-3-ylamino)-2-hydroxypropoxy)benzenesulfonamide] | 17.4 nM
NS(=O)(=O)c1cccc(OC[C@@H](O)CN[C@H]2COC3(CCN(S(=O)(=O)c4ccc5ccccc5c4)CC3)C2)c1 [Compound 560, 3-((S)-2-hydroxy-3-((R)-8-(naphthalen-2-ylsulfonyl)-1-oxa-8-azaspiro[4.5]decan-3-ylamino)propoxy)benzenesulfonamide] | 19.2 nM
Cc1cc(S(=O)(=O)N2CCC3(CC2)CC(NC[C@H](O)COc2cccc(S(=O)(=O)NCCCN(C)C)c2)CO3)ccc1Br (stereo partly drawn) [Compound 310, 3-((2S)-3-(8-(4-bromo-3-methylphenylsulfonyl)-1-oxa-8-azaspiro[4.5]decan-3-ylamino)-2-hydroxypropoxy)-N-(3-(dimethylamino)propyl)benzenesulfonamide] | 877 nM
CNS(=O)(=O)c1cccc(OC[C@@H](O)CNC2COC3(CCN(S(=O)(=O)c4cccc(-c5cncnc5)c4)CC3)C2)c1 (stereo partly drawn) [Compound 104, 3-((2S)-2-hydroxy-3-(8-(3-(pyrimidin-5-yl)phenylsulfonyl)-1-oxa-8-azaspiro[4.5]decan-3-ylamino)propoxy)-N-methylbenzenesulfonamide] | 17.3 nM
CNS(=O)(=O)c1cccc(OC[C@@H](O)CN[C@H]2COC3(CCN(S(=O)(=O)c4cccc(-c5ccc(CNCC(C)C)cc5)c4)CC3)C2)c1 [Compound 363, 3-((S)-2-hydroxy-3-((R)-8-(4′-((isobutylamino)methyl)biphenyl-3-ylsulfonyl)-1-oxa-8-azaspiro[4.5]decan-3-ylamino)propoxy)-N-methylbenzenesulfonamide] | 123 nM
CNS(=O)(=O)c1cccc(OC[C@@H](O)CNC2COC3(CCN(S(=O)(=O)c4cccc(-c5cccc(N(C)C)c5)c4)CC3)C2)c1 (stereo partly drawn) [Compound 83, 3-((2S)-3-(8-(3′-(dimethylamino)biphenyl-3-ylsulfonyl)-1-oxa-8-azaspiro[4.5]decan-3-ylamino)-2-hydroxypropoxy)-N-methylbenzenesulfonamide] | 99.9 nM
CC(O)CNS(=O)(=O)c1cccc(OC[C@@H](O)CNC2COC3(CCN(S(=O)(=O)c4ccc5ccccc5c4)CC3)C2)c1 (stereo partly drawn) [Compound 46, 3-((2S)-2-hydroxy-3-(8-(naphthalen-2-ylsulfonyl)-1-oxa-8-azaspiro[4.5]decan-3-ylamino)propoxy)-N-(2-hydroxypropyl)benzenesulfonamide] | 54.1 nM
CNS(=O)(=O)c1cccc(OC[C@@H](O)CN[C@H]2COC3(CCN(c4nc(C)cc(C)n4)CC3)C2)c1 [Compound 577, 3-((S)-3-((R)-8-(4,6-dimethylpyrimidin-2-yl)-1-oxa-8-azaspiro[4.5]decan-3-ylamino)-2-hydroxypropoxy)-N-methylbenzenesulfonamide] | 102 nM
CC(C)NCc1ccc(-c2cccc(S(=O)(=O)N3CCC4(CC3)C[C@@H](NC[C@H](O)COc3cccc(S(N)(=O)=O)c3)CO4)c2)cc1 [Compound 440, 3-((S)-2-hydroxy-3-((R)-8-(4′-((isopropylamino)methyl)biphenyl-3-ylsulfonyl)-1-oxa-8-azaspiro[4.5]decan-3-ylamino)propoxy)benzenesulfonamide] | 112 nM
O=S(=O)(NC[C@H](O)CO)c1cccc(OC[C@@H](O)CNC2COC3(CCN(S(=O)(=O)c4ccc5ccccc5c4)CC3)C2)c1 (stereo partly drawn) [Compound 166, N—((S)-2,3-dihydroxypropyl)-3-((2S)-2-hydroxy-3-(8-(naphthalen-2-ylsulfonyl)-1-oxa-8-azaspiro[4.5]decan-3-ylamino)propoxy)benzenesulfonamide] | 143 nM
NS(=O)(=O)c1cccc(OC[C@@H](O)CN[C@H]2COC3(CCN(S(=O)(=O)c4cccc(Cl)c4)CC3)C2)c1 [Compound 591, 3-((S)-3-((R)-8-(3-chlorophenylsulfonyl)-1-oxa-8-azaspiro[4.5]decan-3-ylamino)-2-hydroxypropoxy)benzenesulfonamide] | 149 nM
